Data from article PMC10531517, “Rational Design of Novel Peptidomimetics against Influenza A Virus: Biological and Computational Studies” (International Journal of Molecular Sciences, 2023).
Where a SMILES comes first, the peptide text is derived from it. [ ]: non-standard residue; d: D form. NMeH = CN[C@@H](Cc1c[nH]cn1)C(=O)O; Gly(N-CH2CH2OH) = O=C(O)CNCCO; NMeL = CN[C@@H](CC(C)C)C(=O)O

Tested on: A/Parma/24/09 H1N1 virus
Settings: for EC50: read-out: EC50 (concentration that reduced cytopathic effect by 50%)

Question: How did the “SI (ratio of CC50 and EC50)” value turn out when `CC(=O)N[C@@H](CO)C(=O)N[C@@H](CCCCN)C(=O)N(C)[C@@H](Cc1c[nH]cn1)C(=O)N[C@@H](CO)C(N)=O` [Peptide 9, SK(N-Me)HS] (Ac-SK[NMeH]S-NH2) was run?
Answer: >1.78 × 10^3

Question: And the EC50?
Answer: 0.143 nM

Question: How did the “SI (ratio of CC50 and EC50)” value turn out when `CC(=O)N[C@@H](CO)C(=O)N(C)[C@@H](CC(C)C)C(=O)N[C@@H](CC(=O)O)C(=O)N[C@@H](CS)C(N)=O` [Peptide 4, S(N-Me)LDC] (Ac-S[NMeL]DC-NH2) was run?
Answer: >2.9 × 10^5

Question: And the EC50?
Answer: 0.085 nM

Question: Which “SI (ratio of CC50 and EC50)” value does the source give for `CC(=O)N[C@@H](CO)C(=O)N[C@@H](CCCCN)C(=O)N[C@@H](Cc1c[nH]cn1)C(=O)N(CCO)CC(N)=O` [Peptide 18, SKHNhS] (Ac-SKH[Gly(N-CH2CH2OH)]-NH2) here?
Answer: >5 × 10^5

Question: What about the EC50 of the same compound?
Answer: 0.05 nM
